Experimental data reported in US20120214862A1, “MODULATION OF FACTOR 7 EXPRESSION” (ISIS Pharmaceuticals, Inc., priority 2009, published 2012).
Where two headings read alike, the source gives them in different places.

How the values were obtained:
platelet factor-4 (PF-4) = experiment: FeCl3 induced venous thrombosis (VT) model, real-time RT-PCR quantification of PF-4 in vena cava as measure of thrombus formation; type: in vivo, mouse; conditions: for PF-4 (percentage compared to PBS controls): vena cava; for PF-4 (percentage compared to PBS controls) / PF-4 (percent of PF-4 mRNA as compared to the PBS + FeCl3 control): BALB/c mice; for PF-4 (percent of PF-4 mRNA as compared to the PBS + FeCl3 control): no ISIS 403102
Method: (§1) Two control groups of BALB/c mice were treated with PBS, administered subcutaneously twice a week for 3 weeks. Thrombus formation was induced with FeCl3 in half of the mice while the rest of the mice were assayed for tail bleeding. […] Thrombus formation was induced with FeCl3 in all groups of the VT mice except the first control group.
In mice undergoing FeCl3 treatment, thrombus formation was induced by applying a piece of filter paper ([…]) pre-saturated with 10% FeCl3 solution directly on the vena cava. After 3 minutes of exposure, the filter paper was removed. Thirty minutes after the filter paper application, a fixed length of the vein containing the thrombus was dissected out for platelet analysis. Liver was collected for RNA analysis.
(§2) Real-time RT-PCR quantification of platelet factor-4 (PF-4) was used to quantify platelets in the vena cava as a measure of thrombus formation.
Six additional groups of BALB/c mice was treated with 0.5 mg/kg, 1 mg/kg, 2 mg·kg, 3 mg/kg, 4 mg/kg, or 5 mg/kg of warfarin, administered intraperioneally daily for 6 days. Four hours after the last dose of warfarin, mice were sacrificed. A control group of BALB/c mice were treated with PBS, administered subcutaneously twice a week for 3 weeks. Two days after the last dose of PBS, mice were anesthetized with 150 mg/kg ketamine mixed with 10 mg/kg xylazine administered by intraperitoneal injection. Thrombus formation was induced with FeCl3 in groups of mice except the first control group.
In mice undergoing FeCl3 treatment, thrombus formation was induced by applying a piece of filter paper (2×4 mm) pre-saturated with 10% FeCl3 solution directly on the vena cava. After 3 minutes of exposure, the filter paper was removed. Thirty minutes after the filter paper application, a fixed length of the vein containing the thrombus was dissected out for platelet analysis. Liver was collected for RNA analysis.
as §2
Thrombus formation was induced with FeCl3 in all of the mice except the first […] control groups. All mice were anesthetized with 150 mg/kg of ketamine mixed with 10 mg/kg of xylazine administered by intraperitoneal injection.
After 3 minutes of exposure, the filter paper was removed. Thirty minutes after the filter paper application, a fixed length of the vein containing the thrombus was dissected out for platelet analysis.
Real-time PCR quantification of PF-4 was used to quantify platelets in the vena cava as a measure of thrombus formation. […] Data is presented as percent of PF-4 mRNA as compared to the PBS+ FeCl3 control, […]

murine Factor 7 mRNA = experiment: Liver Factor 7 mRNA by real-time RT-PCR in treated BALB/c mice; type: in vivo, mouse
Method: A control group of mice was injected subcutaneously with PBS twice a week for 3 weeks. After the treatment period, whole liver was collected for RNA and protein analysis, and plasma was collected for clotting analysis (PT/aPTT).
(§3) RNA was extracted from liver tissue for real-time RT-PCR analysis of Factor 7.
A control group of 3 mice was injected with a single dose of PBS, and mice in this group were sacrificed on day 1. Mice in all groups were sacrificed by cervical dislocation following anesthesia with 150 mg/kg ketamine mixed with 10 mg/kg xylazine administered by intraperitoneal injection. Liver was harvested for RNA analysis and plasma was collected for clotting analysis (PT and aPTT).
as §3
Mice from the first group were sacrificed on days 1 and 3 after the single dose. […] A control group of 3 mice was injected with PBS in a single dose. Mice from the control group were sacrificed 1 day later. Mice in all groups were sacrificed by cervical dislocation following anesthesia with 150 mg/kg ketamine mixed with 10 mg/kg xylazine administered by intraperitoneal injection. Liver was harvested for RNA analysis and plasma was collected for clotting analysis (PT and aPTT) for mice in all groups.
RNA was extracted from liver tissue for quantitative RT-PCR analysis of Factor 7.
as §1, §3
A fifth group of BALB/c mice was treated with 3 mg/kg of warfarin, administered intraperioneally daily for 6 days. Four hours after the last dose of warfarin, mice were sacrificed. A control group of BALB/c mice were treated with PBS, administered subcutaneously twice a week for 3 weeks. Two days after the last dose of PBS, mice were anesthetized with 150 mg/kg ketamine mixed with 10 mg/kg xylazine administered by intraperitoneal injection. Thrombus formation was induced with FeCl3 in groups of mice except the first control group.

BALB/c mice [1] = experiment: Tail bleeding assay; conditions: for Blood: BALB/c mice, blood collected over 40 minutes, PBS 0.06
BALB/c mice [2] = conditions: mouse, in vivo; for Blood: BALB/c, 30 min

CC(=O)CC(c1ccccc1)c1c(O)c2ccccc2oc1=O (stereo not drawn) [warfarin, reference compound]
PF-4 in comparison to the PBS control (platelet factor-4 (PF-4); Example 16, dose of 1 mg/kg and higher, intraperitoneally daily for 6 days): reduction of PF-4 | PF-4 (percentage compared to PBS controls) (platelet factor-4 (PF-4); FeCl3, 0.5 mg/kg i.p. daily for 6 days): 165% | PF-4 (percentage compared to PBS controls) (platelet factor-4 (PF-4); FeCl3, 1 mg/kg i.p. daily for 6 days): 63% | PF-4 (percentage compared to PBS controls) (platelet factor-4 (PF-4); FeCl3, 2 mg/kg i.p. daily for 6 days): 47% | PF-4 (percentage compared to PBS controls) (platelet factor-4 (PF-4); FeCl3, 3 mg/kg i.p. daily for 6 days): 35% | PF-4 (percentage compared to PBS controls) (platelet factor-4 (PF-4); FeCl3, 4 mg/kg i.p. daily for 6 days): 22% | PF-4 (percentage compared to PBS controls) (platelet factor-4 (PF-4); FeCl3, 5 mg/kg i.p. daily for 6 days): 0% | reduction of Factor 7 mRNA as compared to the PBS control (murine Factor 7 mRNA; Example 15, 3 mg/kg intraperitoneally daily for 6 days): did not result in significant reduction | % inhibition of Factor 7 mRNA (murine Factor 7 mRNA; liver, BALB/c mice, FeCl3 VT model, 3 mg/kg i.p. daily for 6 days, relative to PBS control): 10% | Blood (BALB/c mice [1]; 0.5 mg/kg i.p. daily for 6 days): 0.16 g | Blood (BALB/c mice [1]; 1 mg/kg i.p. daily for 6 days): 0.28 g | Blood (BALB/c mice [1]; 2 mg/kg i.p. daily for 6 days): 0.58 g | Blood (BALB/c mice [1]; 3 mg/kg i.p. daily for 6 days): 0.78 g | Blood (BALB/c mice [1]; 4 mg/kg i.p. daily for 6 days): 0.66 g | Blood (BALB/c mice [1]; 5 mg/kg i.p. daily for 6 days): 0.93 g | bleeding as compared to PBS control mice (BALB/c mice [1]; Example 17, 0.5-5 mg/kg intraperitoneally daily for 6 days): did increase bleeding

COC(=O)[C@H](c1ccccc1Cl)N1CCc2sccc2C1 [Plavix, clopidogrel, reference compound]
PF-4 (percent of PF-4 mRNA as compared to the PBS + FeCl3 control) (platelet factor-4 (PF-4); FeCl3, Plavix 6.25 mg/kg): 61% | PF-4 (percent of PF-4 mRNA as compared to the PBS + FeCl3 control) (platelet factor-4 (PF-4); FeCl3, Plavix 12.50 mg/kg): 24% | PF-4 (percent of PF-4 mRNA as compared to the PBS + FeCl3 control) (platelet factor-4 (PF-4); FeCl3, Plavix 25.00 mg/kg): 13% | PF-4 (percent of PF-4 mRNA as compared to the PBS + FeCl3 control) (platelet factor-4 (PF-4); FeCl3, Plavix 50.00 mg/kg): 6% | PF-4 in comparison to the PBS control (platelet factor-4 (PF-4); Example 22, Plavix 6.25-50.00 mg/kg, three doses over two days): reduction of PF-4

COc1ccc(-n2nc(C(N)=O)c3c2C(=O)N(c2ccc(N4CCCCC4=O)cc2)CC3)cc1 [Apixaban, reference compound]
Blood (BALB/c mice [2]; ip, 5 mg/kg): 0.22 g | Blood (BALB/c mice [2]; ip, 10 mg/kg): 0.58 g | Blood (BALB/c mice [2]; sc, 10 mg/kg): 0.04 g | bleeding compared to PBS treated mice (BALB/c mice [2]; ip, 5 mg/kg): same amount of bleeding as PBS treated mice | bleeding compared to PBS treated mice (BALB/c mice [2]; ip, 10 mg/kg): increased bleeding | bleeding compared to PBS treated mice (BALB/c mice [2]; sc, 10 mg/kg): less bleeding than PBS mice
